# In US20240342120A1, “MULTIPLE MYELOMA TREATMENT” (Vanda Pharmaceuticals Inc., priority 2013, published 2024):
# Key:
# Type in all cases: cell-based
# CDC2 = assay: Affymetrix gene expression, CDC2, cells treated 24 hours; conditions: probe 203214_x_at; human retinal pigment epithelial cell line; 24 hours vs vehicle; Instance ID 10005533
# Method: (§1) A human retinal pigment epithelial cell line was treated with trichostatin or vehicle for 24 hours and gene expression for 22,238 probe sets covering 12,490 genes was generated using an Affymetrix instrument.
# [1] = test system: CCNB1, AURKB, CDC2, BIRC5, KIF11, KIF2C, TOP2A, ASPM, CKS1B, and WEE1; assay: Affymetrix gene expression, ten-gene summary, cells treated 24 hours; conditions: human retinal pigment epithelial cell line; 24 hours vs vehicle; summary in words of Table 1
# Method: as §1
# TOP2A = assay: Affymetrix gene expression, TOP2A, cells treated 24 hours; conditions: human retinal pigment epithelial cell line, 24 hours vs vehicle
# Method: as §1
smiles,measurement,setting,value
"CC(/C=C/C(=O)NO)=C\[C@@H](C)C(=O)c1ccc(N(C)C)cc1 [trichostatin A, 7-[4-(dimethylamino)phenyl]-N-hydroxy-4,6-dimethyl-7-oxohepta-2,4-dienamide]","Fold Expression Δ, CDC2",CDC2,−11.83 Fold
same,"effect on expression of CCNB1, AURKB, CDC2, BIRC5, KIF11, KIF2C, TOP2A, ASPM, CKS1B, and WEE1",[1],significant downregulation
same,"Fold Expression Δ, TOP2A","TOP2A; probe 201291_s_at, Instance ID 10005533",−28.22 Fold
same,"Fold Expression Δ, TOP2A","TOP2A; probe 201292_at, Instance ID 10005532",−31.95 Fold
